Data on 24 molecules can be found in ChEMBL document CHEMBL5528026, “Structural modification of C2-substituents on 1,4-bis(arylsulfonamido)benzene or naphthalene-N,N'-diacetic acid derivatives as potent inhibitors of the Keap1-Nrf2 protein-protein interaction” (Eur J Med Chem, 2024).

Test [1] has as its target T1, Keap1/Nrf2 (Homo sapiens, UniProt Q14145). Description: (§1) Inhibition of Keap1-Nrf2 protein-protein interaction (unknown origin) assessed as inhibition constant by TR-FRET assay. For orientation: In TR-FRET formats the signal depends on donor and acceptor labels being close together.
Test [2] deals with T1, Keap1/Nrf2. Description: Inhibition of Keap1-Nrf2 protein-protein interaction (unknown origin) by fluorescence polarization assay.
Test [3] deals with T1, Keap1/Nrf2. Description: Inhibition of Keap1-Nrf2 protein-protein interaction (unknown origin) by TR-FRET assay.
Test [4] has as its target T2, Keap1/Nrf2 (Homo sapiens, UniProt Q16236+Q14145). The test can be described thus: Inhibition of Keap1-Nrf2 protein-protein interaction in human NCM460D cells assessed as fold induction at 1 to 100 uM in NQO1 mRNA level incubated for 24 hrs by RT-qPCR analysis. Conditions: dose 1-100 µM. In kind it is cell-based.
Target sequence in this assay (Q14145 whole entry, looked up): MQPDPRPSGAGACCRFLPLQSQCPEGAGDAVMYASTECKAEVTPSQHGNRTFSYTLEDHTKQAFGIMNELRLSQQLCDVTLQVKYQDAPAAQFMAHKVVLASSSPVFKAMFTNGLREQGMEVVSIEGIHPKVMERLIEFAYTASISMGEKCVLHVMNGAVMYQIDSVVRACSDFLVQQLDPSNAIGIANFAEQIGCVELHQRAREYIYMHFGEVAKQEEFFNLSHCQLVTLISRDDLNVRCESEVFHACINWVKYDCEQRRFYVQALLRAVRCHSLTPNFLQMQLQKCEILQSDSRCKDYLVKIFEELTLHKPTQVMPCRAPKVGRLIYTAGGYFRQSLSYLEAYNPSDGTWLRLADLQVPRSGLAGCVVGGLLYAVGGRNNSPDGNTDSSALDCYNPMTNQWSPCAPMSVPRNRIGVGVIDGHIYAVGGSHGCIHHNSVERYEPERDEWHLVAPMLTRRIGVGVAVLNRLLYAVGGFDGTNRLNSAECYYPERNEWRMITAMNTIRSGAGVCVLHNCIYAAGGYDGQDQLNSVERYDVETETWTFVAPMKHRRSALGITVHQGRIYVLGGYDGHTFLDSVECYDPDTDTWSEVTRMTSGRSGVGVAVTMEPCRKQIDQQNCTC
Target sequence in this assay (Q16236 whole entry, looked up): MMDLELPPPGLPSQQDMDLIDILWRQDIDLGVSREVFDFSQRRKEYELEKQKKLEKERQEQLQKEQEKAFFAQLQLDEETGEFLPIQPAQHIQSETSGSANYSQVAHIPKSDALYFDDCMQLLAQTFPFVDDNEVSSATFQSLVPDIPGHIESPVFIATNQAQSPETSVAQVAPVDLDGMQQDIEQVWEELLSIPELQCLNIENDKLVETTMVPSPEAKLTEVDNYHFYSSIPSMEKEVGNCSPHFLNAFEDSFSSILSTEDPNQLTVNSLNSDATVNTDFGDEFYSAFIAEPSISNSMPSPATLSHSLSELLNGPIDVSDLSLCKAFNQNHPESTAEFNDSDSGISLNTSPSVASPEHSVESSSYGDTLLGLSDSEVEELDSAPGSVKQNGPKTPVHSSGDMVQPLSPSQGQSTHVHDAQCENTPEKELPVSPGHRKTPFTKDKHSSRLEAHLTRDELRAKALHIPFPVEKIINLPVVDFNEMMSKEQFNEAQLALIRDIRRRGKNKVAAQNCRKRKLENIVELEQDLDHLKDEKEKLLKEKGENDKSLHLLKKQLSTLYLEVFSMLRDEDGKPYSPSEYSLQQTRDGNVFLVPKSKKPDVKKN
The target of test [5] is T1, Keap1/Nrf2. Description: Inhibition of Keap1-Nrf2 protein-protein interaction (unknown origin) assessed as inhibition constant by fluorescence polarization assay.
Test [6] addresses T2, Keap1/Nrf2. Described as §1.
Target sequence in this assay (Q16236 whole entry): as the sequence (Q16236 whole entry, looked up) above
Target sequence in this assay (Q14145 whole entry): as the sequence (Q14145 whole entry, looked up) above

T1 sequence (Q16236 whole entry): as the sequence (Q16236 whole entry, looked up) above
T1 sequence (Q14145 whole entry): as the sequence (Q14145 whole entry, looked up) above

The term Ki denotes a measure of affinity in units of concentration, obtained from inhibition or displacement. In general, IC50 refers to the midpoint of a concentration-inhibition curve. A lower IC50 goes with inhibition by little substance. `COc1ccc(S(=O)(=O)N(CC(=O)O)c2ccc(N(CC(=O)O)S(=O)(=O)c3ccc(OC)cc3)c(OCC(=O)N3CCC(c4ccccc4)CC3)c2)cc1`: the Ki on Keap1/Nrf2 [1] was 141 nM. For the same molecule, inhibition against Keap1/Nrf2 [2] was half-maximal at 760 nM (IC50).
On the same counts, the results for `COc1ccc(S(=O)(=O)N(CC(=O)O)c2ccc(N(CC(=O)O)S(=O)(=O)c3ccc(OC)cc3)c(OC(=O)c3ccccc3)c2)cc1` are 351 nM and 1780 nM.
Take `Cc1ccc(S(=O)(=O)N(CC(=O)O)c2cc(CCC(=O)O)c(N(CC(=O)O)S(=O)(=O)c3ccc(C)cc3)c3ccccc23)cc1`: the IC50 against Keap1/Nrf2 [3] came out at 22.3 nM; at Keap1/Nrf2 [2], 69.3 nM. The Ki at Keap1/Nrf2 [1] was 9.1 nM; at Keap1/Nrf2 [5], about 1 nM. Moreover, the FC on Keap1/Nrf2 [4] turned out to be 8.
For the molecule `COc1ccc(S(=O)(=O)N(CC(=O)O)c2ccc(N(CC(=O)O)S(=O)(=O)c3ccc(OC)cc3)c(OCC(=O)N3CCN(C)CC3)c2)cc1`, on Keap1/Nrf2 [1], the Ki was 452 nM. For the same molecule, the 50% inhibitory concentration (IC50) against Keap1/Nrf2 [2] turned out to be 2260 nM.
On the same counts, the results for `COc1ccc(S(=O)(=O)N(CC(=O)O)c2ccc(N(CC(=O)O)S(=O)(=O)c3ccc(OC)cc3)c(C(=O)Oc3ccccc3)c2)cc1` are 780 nM and 3850 nM.
On the same counts, the results for `COc1ccc(S(=O)(=O)N(CC(=O)O)c2ccc(N(CC(=O)O)S(=O)(=O)c3ccc(OC)cc3)c(OS(=O)(=O)c3ccccc3)c2)cc1` are 74.2 nM and 439 nM.
On to `Cc1ccc(S(=O)(=O)N(CC(=O)O)c2ccc(N(CC(=O)O)S(=O)(=O)c3ccc(C)cc3)c(O[C@@H](C)C(=O)O)c2)cc1`, for which the figures for the half-maximal inhibitory concentration (IC50) on Keap1/Nrf2 [3] and against Keap1/Nrf2 [2] were 72.2 nM and 136 nM, respectively. Moreover, the Ki was 32.2 nM at Keap1/Nrf2 [1] and 11.6 nM at Keap1/Nrf2 [5].
Take `COc1ccc(S(=O)(=O)N(CC(=O)O)c2ccc(N(CC(=O)O)S(=O)(=O)c3ccc(OC)cc3)c(OS(=O)(=O)Cc3ccccc3)c2)cc1`: the Ki at Keap1/Nrf2 [1] came to 82 nM.
In the case of `Cc1ccc(S(=O)(=O)N(CC(=O)O)c2cc(OCC(=O)O)c(N(CC(=O)O)S(=O)(=O)c3ccc(C)cc3)c3ccccc23)cc1`, the FC at Keap1/Nrf2 [4] turned out to be 15.
Molecule `Cc1ccc(S(=O)(=O)N(CC(=O)O)c2ccc(N(CC(=O)O)S(=O)(=O)c3ccc(C)cc3)c(NCC(=O)O)c2)cc1` had an IC50 against Keap1/Nrf2 [2] of 1780 nM. Also, the Ki on Keap1/Nrf2 [5] turned out to be 351 nM.
On the same counts, the results for `Cc1ccc(S(=O)(=O)N(CC(=O)O)c2ccc(N(CC(=O)O)S(=O)(=O)c3ccc(C)cc3)c(OCC(=O)N3CCOCC3)c2)cc1` are 641 nM and 116 nM.
As to `COc1ccc(S(=O)(=O)N(CC(=O)O)c2ccc(N(CC(=O)O)S(=O)(=O)c3ccc(OC)cc3)c(OCC(=O)N3CCOCC3)c2)cc1`, at Keap1/Nrf2 [1], the Ki was 66.1 nM. The same molecule gave an IC50 against Keap1/Nrf2 [2] of 399 nM.
`Cc1ccc(S(=O)(=O)N(CC(=O)O)c2ccc(N(CC(=O)O)S(=O)(=O)c3ccc(C)cc3)c(CCC(=O)O)c2)cc1`: at Keap1/Nrf2 [2], the IC50 is 565 nM. Also, the Ki at Keap1/Nrf2 [5] is 100 nM.
As to `COc1ccc(S(=O)(=O)N(CC(=O)O)c2ccc(N(CC(=O)O)S(=O)(=O)c3ccc(OC)cc3)c(OS(=O)(=O)c3ccc(-c4ccccc4)cc3)c2)cc1`, at Keap1/Nrf2 [1], the inhibitory constant (Ki) amounted to 78.3 nM.
With `Cc1ccc(S(=O)(=O)N(CC(=O)O)c2ccc(N(CC(=O)O)S(=O)(=O)c3ccc(C)cc3)c(OS(=O)(=O)c3c(C)cc(C)cc3C)c2)cc1`, half-maximal inhibition against Keap1/Nrf2 [2] (IC50) required 407 nM. At Keap1/Nrf2 [5], the Ki turned out to be 67.6 nM.
Consider `Cc1ccc(S(=O)(=O)N(CC(=O)O)c2ccc(N(CC(=O)O)S(=O)(=O)c3ccc(C)cc3)c(O[C@H](C)C(=O)O)c2)cc1`, for which, at Keap1/Nrf2 [6], the Ki was 41.4 nM.
For the molecule `COc1ccc(S(=O)(=O)N(CC(=O)O)c2ccc(N(CC(=O)O)S(=O)(=O)c3ccc(OC)cc3)c(OCCN3CCOCC3)c2)cc1`, the Ki at Keap1/Nrf2 [1] was found to be 500 nM. This molecule had an IC50 on Keap1/Nrf2 [2] of 2500 nM.
On to `Cc1ccc(S(=O)(=O)N(CC(=O)O)c2ccc(N(CC(=O)O)S(=O)(=O)c3ccc(C)cc3)c(OCc3nnn[nH]3)c2)cc1`, for which the IC50 against Keap1/Nrf2 [2] was 408 nM. Moreover, the inhibition constant (Ki) at Keap1/Nrf2 [5] came out at 68 nM.
As to `COc1ccc(S(=O)(=O)N(CC(=O)O)c2ccc(N(CC(=O)O)S(=O)(=O)c3ccc(OC)cc3)c(OCC(=O)c3ccccc3)c2)cc1`, the Ki at Keap1/Nrf2 [1] was found to be 106 nM. Also, 593 nM corresponded to half-maximal inhibition at Keap1/Nrf2 [2] (IC50).
Taken in the same sequence, the figures for `COc1ccc(S(=O)(=O)N(CC(=O)O)c2ccc(N(CC(=O)O)S(=O)(=O)c3ccc(OC)cc3)c(C(=O)OCc3ccccc3)c2)cc1` were 316 nM and 1610 nM.
In the case of `Cc1ccc(S(=O)(=O)N(CC(=O)O)c2ccc(N(CC(=O)O)S(=O)(=O)c3ccc(C)cc3)c(OCc3ccc(F)cc3)c2)cc1`, the Ki on Keap1/Nrf2 [5] worked out at 76.3 nM.
Molecule `Cc1ccc(S(=O)(=O)N(CC(=O)O)c2ccc(N(CC(=O)O)S(=O)(=O)c3ccc(C)cc3)c(OCCN3C(=O)c4ccccc4C3=O)c2)cc1` showed a concentration for half-maximal inhibition (IC50) against Keap1/Nrf2 [2] of 228 nM. The Ki on Keap1/Nrf2 [5] was 30.6 nM.
On to `COc1ccc(S(=O)(=O)N(CC(=O)O)c2ccc(N(CC(=O)O)S(=O)(=O)c3ccc(OC)cc3)c(OCC(=O)Nc3ccccc3)c2)cc1`, for which the Ki on Keap1/Nrf2 [1] was 1570 nM. On Keap1/Nrf2 [2], this molecule had an IC50 of 7680 nM.
Consider `COc1ccc(S(=O)(=O)N(CC(=O)O)c2ccc(N(CC(=O)O)S(=O)(=O)c3ccc(OC)cc3)c(OS(=O)(=O)c3c(C)cc(C)cc3C)c2)cc1`, for which the Ki at Keap1/Nrf2 [1] worked out at 50.7 nM.
